# System: Mouse squamous cell carcinoma cells SCC-VII
# Assay: Cytotoxicity in vitro with ultrasound, alamarBlue cell viability assay
# Assay type: cell-based
# Conditions: +US, ISAPA=1 W/cm^2, 10% duty cycle, 2 min, 24 hours after treatment
# Protocol: Mouse squamous cell carcinoma cells SCC-VII were cultured in RPMI 1640 medium supplemented with 10% fetal bovine serum (FBS), […] and 200 IU/mL penicillin (Gibco, ThermoFisher Scientific, Waltham, Mass.). Cells were harvested and suspended in a concentration of 1×10^6 cells/mL using serum free RPMI-1640 medium. Every 2 mL of cell suspension was transferred to 14 mL Falcon round-bottom polystyrene tubes. Immediately before the US treatment, the suspension was supplemented together with various concentrations of MBPpIX. US (1 MHz, 10% duty cycle) exposure time for each acoustic condition is 2 min. During exposure, the sample tube was gently shaking occasionally (every 10 sec) to improve mixing and to provide uniform exposure. Free PpIX (first dissolved in DMSO; final concentration: 2.9 μM) or PpIX liposome (precursor of MBPpIX, with equivalent PpIX concentration of 2.9 μM) were used for comparison and cells not treated were used as controls (NT). After treatment procedure, 300 μL of the cell suspension was transferred to a 24 well plate prefilled with 2 mL cell culture medium, and the cells were incubated at 37° C. for 24 hours. Cell viability was then measured using alamarBlue cell viability assay. Cell morphology was examined with bright field microscopy (IX81, Olympus, Center Valley, Pa.). […]
smiles,measurement,value
"C=CC1=C(C)c2cc3[nH]c(cc4nc(cc5[nH]c(cc1n2)c(C)c5CCC(=O)O)C(CCC(=O)O)=C4C)c(C)c3C=C [PpIX, protoporphyrin IX]",cell viability,4±3%
